According to patent US10464967B2, “Non-hormonal steroid modulators of NF-κβ for treatment of disease” (Reveragen Biopharma, Inc., priority 2011, dated 2019):

Tests used:
[1] = test system: mdx mice; assay: In vivo mdx mouse model of dystrophy
Description: Separate groups (n=12-14) of mdx mice were treated with prednisolone (5 mg/kg/day; per oral in feed), Example 1 (20 and 40 mg/kg/day; per oral in feed) and Example 2 (20 and 40 mg/kg/day; per oral in feed) for 3 months. All mice underwent 30 min biweekly treadmill exercise during the treatment duration to unmask the mild disease phenotype of mdx mouse model.
Motor coordination and strength were assessed using Rota-rod (Ugo Basile, VA, Italy) testing. Briefly, mice were trained on the rota-rod for two days before collecting data. Each acclimatization session consisted of four training sessions, 2 per day and each session lasting 120 seconds at a speed of 5 rpm). Each trial consisted of placing the mice on the rod at 10 rpm for 60 seconds (stabilizing period) followed by an acceleration from 10 rpm to 40 rpm within the first 25 seconds until the animal fell from the rod or until 180 seconds are reached. If the animals fell during the stabilizing period, they were placed back on the rod to complete the session. The total testing time was 240 seconds (60 seconds stabilization time and 180 seconds test time). Each trial was performed twice a day (2 hour interval between sessions) for 3 consecutive days. The latency to fall (seconds) was recorded and all six scores were averaged per mouse. The average data was expressed as latency to fall (in seconds) for each group mice at 3 age groups.
The distal tendon of the extensor digitorum longus (EDL) muscle was tied securely to the lever arm of a servomotor/force transducer (model 305B, Aurora Scientific, Richmond Hill, ON, Canada) and the proximal tendon to a tissue clamp. Muscles were stimulated between two platinum electrodes. […] With the muscle held at Lo using stimulation frequencies of 30, 50, 80, 100, 120 and 150 Hz, the maximum isometric tetanic force (Po) developed during a 300 ms train of stimulation pulses was recorded for the EDL muscle. The muscle length was then measured with calipers and after removal of the muscle from the bath the mass of the muscle was determined. For each muscle, the optimum fiber length (Lf) was calculated by multiplying Lo by a previously determined Lf/Lo ratio of 0.45. Total muscle fiber cross-sectional area was determined by dividing the wet mass by the product of Lf and the density of mammalian skeletal muscle (1.06 mg/mm^3). Maximum isometric specific force (sPo) was determined by dividing Po by the total muscle fiber cross-sectional area.

[2] = test system: C57BL/6 mice; assay: Mouse carrageenan-induced paw edema model; assay type: in vivo; settings: 10, 20, 40 mg/kg in cherry syrup; 5 hours after carrageenan
Description: Female C57BL/6 mice (n=5 per group) were administered prednisone (5 mg/kg) and the compound of Example 9 (10, 20, 40 mg/kg) in cherry syrup. 24 hours later, drugs and vehicle control (syrup) were administered again. 2 hours later, mice were anesthetized, paw thickness was measured with a caliper to obtain a baseline value, and 1% carrageenan was injected subcutaneously in the subplantar region of the right hind paw. Mice were sacrificed 5 hours later and paw edema was measured via caliper. Change in thickness was calculated by subtracting baseline value from post-carrageenan injection value. Statistical analysis was performed using a Student's T-test.

[3] = test system: DBA/1 mice; assay: Collagen antibody induced arthritis (CAIA) model; assay type: in vivo, mouse; settings: for Mean clinical severity score / Reduction as compared with vehicle-treated mice: prednisone 5 mg/kg, Example 9 20 mg/kg oral
Description: On day 1, DBA/1 mice (Jackson Labs, Bar Harbor, Me.) received an intraperitoneal (i.p.) injection of 2 mg of monoclonal antibody cocktail specific for collagen (CII) (MD Biosciences, St. Paul, Minn.). Two days later (day 3), mice received an i.p. injection of 100 μg of lipopolysaccharide (LPS). Mean clinical severity of CAIA was determined using a macroscopic clinical severity scoring system every 2-3 days by three individuals until the end of the experiment (day 14 post antibody cocktail injection). The scoring criteria was performed as follows: 0: No signs of disease; 1: Mild redness and/or swelling of one digit; 2: Redness and/or swelling of 2 digits; 3: Redness and/or swelling of more than 2 digits; 4: Redness and swelling of entire paw.
For intervention studies, mice (n=10) received an oral dose of 20 mg/kg of the compound of Example 9 suspended in cherry syrup (30 μl total volume) on day 0 through day 14. Additional groups of mice (n=10) received 5 mg/kg of prednisone in cherry syrup as a positive control, or cherry syrup alone as a negative control. On day 14, animals were sacrificed via CO2 exposure. Statistical analysis was performed using a two-way ANOVA followed by a Bonferroni post-hoc test.

[4] = test system: mice; assay: OVA-induced mouse model of acute allergic asthma; assay type: in vivo; settings: 20 mg/kg oral on days 6-11
Description: The model used in the current studies has been previously described (Gwinn et al. 2006; Balsley et al. 2010). Briefly, mice were primed via intraperitoneal (i.p) injection with 50 μg of OVA in PBS with 100 μl of alum (200 μl total volume per mouse) on day 0. OVA-primed mice were challenged under light anesthesia (isoflurane) by intranasal delivery of 100 μg of OVA in PBS on days 7-10. Mice were sacrificed via CO2 exposure on day 12 for analysis.
For in vivo intervention studies, mice (n=5) received an oral dose of 20 mg/kg of the compound of Example 9 suspended in cherry syrup (30 μl total volume) on days 6-11. Additional groups of mice (n=5) received 5 mg/kg of prednisone in cherry syrup as a positive control, or cherry syrup alone as a negative control. Following sacrifice on day 12, leukocytes were collected from the airways via bronchoalveolar lavage (BAL). For this procedure, a cannula was inserted into the trachea and two 1 ml washes of cold PBS were infused in and out of the airways. […]
BAL and lung tissue cells were treated with ammonium chloride lysis buffer to remove red blood cells. The remaining leukocytes were then counted and stained for FACS analysis with a combination of PE-Cy5-anti-mouse CD4 and FITC-anti-mouse CD62L to identify effector/memory CD4+ cells (CD4+/CD62L−). […]

[5] = 20 and 40 mg/kg/day for 3 months, vs untreated and prednisolone treated

SMILES | Histology (H&E) of gastrocnemius muscle [1, 5] | Mean clinical severity score ([3]; Day 7) | Reduction as compared with vehicle-treated mice ([3]; Day 7) [%] | Mean clinical severity score ([3]; Day 9) | Reduction as compared with vehicle-treated mice ([3]; Day 9) [%] | Mean clinical severity score ([3]; Day 11) | Reduction as compared with vehicle-treated mice ([3]; Day 11) [%] | Mean clinical severity score ([3]; Day 14) | Reduction as compared with vehicle-treated mice ([3]; Day 14) [%] | further results
C[C@]12CCC(=O)C=C1CCC1C2=CC[C@@]2(C)C1CC[C@]2(O)C(=O)CO (stereo partly drawn) [Example 1, (10S,13S,17R)-17-hydroxy-17-(2-hydroxyacetyl)-10,13-dimethyl-6,7,8,10,12,13,14,15,16,17-decahydro-1H-cyclopenta[a]phenanthren-3(2H)-one] | significant decrease in inflammation, degeneration, and increase in regenerating muscle fibers |  |  |  |  |  |  |  |  | 
C[C@]12C=CC(=O)C=C1CCC1C2=CC[C@@]2(C)C1CC[C@]2(O)C(=O)CO (stereo partly drawn) [Example 2, (10S,13S,17R)-17-hydroxy-17-(2-hydroxyacetyl)-10,13-dimethyl-6,7,8,10,12,13,14,15,16,17-decahydro-3H-cyclopenta[a]phenanthren-3-one] | significant decrease in inflammation, degeneration, and increase in regenerating muscle fibers |  |  |  |  |  |  |  |  | 
C[C@@H]1CC2C3CCC4=CC(=O)C=C[C@]4(C)C3=CC[C@]2(C)[C@@]1(O)C(=O)CO (stereo partly drawn) [Example 9, (10S,13S,16R,17R)-17-hydroxy-17-(2-hydroxyacetyl)-10,13,16-trimethyl-6,7,8,10,12,13,14,15,16,17-decahydro-3H-cyclopenta[a]phenanthren-3-one] |  | 4.5 ± 0.95 | 43.8 | 5.0 ± 0.77 | 35.5 | 5.6 ± 0.82 | 41.3 | 3.1 ± 0.69 | 50 | Carrageenan-induced paw edema [2]: effective at reducing mouse paw edema induced by carrageenan; Collagen antibody induced arthritis ([3]; 20 mg/kg oral, day 0 through day 14): effective at reducing collagen antibody induced arthritis; Parameters of acute allergic lung inflammation (leukocyte infiltration, mucus production) [4]: effective at improving parameters of acute allergic lung inflammation
C[C@]12C=CC(=O)C=C1CC[C@@H]1[C@@H]2[C@@H](O)C[C@@]2(C)[C@H]1CC[C@]2(O)C(=O)CO [Prednisolone] |  |  |  |  |  |  |  |  |  | Body weight vs untreated mice ([1]; 5 mg/kg/day per oral in feed, 33.8 weeks age): significantly lower body weight; Histology (H&E) of gastrocnemius muscle ([1]; continuous prednisolone 5 mg/kg/day): appeared to increase degeneration and decrease in regeneration of dystrophic skeletal muscle; EDL specific force vs untreated ([1]; prednisolone 5 mg/kg/day): no statistically significant (P<0.05) difference in specific force
C[C@]12C=CC(=O)C=C1CC[C@@H]1[C@@H]2C(=O)C[C@@]2(C)[C@H]1CC[C@]2(O)C(=O)CO [Prednisone, reference compound] |  | 2.4 ± 0.68 | 69.8 | 1.5 ± 0.27 | 69.8 | 2.9 ± 0.39 | 69.1 | 0.7 ± 0.3 | 88.7 | 
